Read-outs that look alike come from different tables or passages of the source. Marks after values point to notes of the source that are not given here.
Legend:
[1] = system: focal cerebral ischemia in rats; assay: Focal brain injury, occlusion of MCA induced by photochemical reaction; format: in vivo
Procedure: a. Focal brain injury caused by photochemical induction of occlusion of the artery:
The percentage of infarction was lowered by 52% at 24 hours after operation.

[2] = system: focal cerebral ischemia in rats; assay: Temporary occlusion of the right MCA in rats caused by suture; format: in vivo; settings: for Percent of volume (Means ± SEM) / Percent of infarct (%) (Means ± SEM): rats; for Percent of volume (Means ± SEM): length of ischemia 6 hr
Source text: b. Temporary occlusion of the right MCA in rats caused by suture.

cerebral anoxia in mice = assay: Anoxic anoxia experiment in mice (closed wide-mouth bottles with soda lime); format: in vivo, Male Kunming mice; settings: for ED50: Mus musculus, sc, survival time in anoxic anoxia
Procedure: Methods: Male Kunming mice were divided into 8 groups, 12 mice for each group. One group is injected subcutaneously with saline ([…], sc), other groups with ACEA1021 (NMDA receptor antagonist under clinical trial) or IV-23. 30 minutes after administration, the animals were put separately into wide-mouth bottles with soda lime, which more quickly closed. The survival time for each mice was recorded, and the group average of survival time was calculated and compared with the saline group.

[3] = system: anoxia induced by sodium nitrite in mice; assay: Anti-cerebral anoxia in mice, anoxia induced by sodium nitrite; format: in vivo; settings: Mus musculus, sc, mice; sodium nitrite 225 mg/kg ip; compound 20 mg/kg sc; read-out: Prolonging the survival duration (%)
Procedure: The rates of the prolongation of 9 compounds (IV-2, 10, 23, 32, 34, 36, 39, 40, 41) were more than 50%, which indicated the effect of anti-cerebral anoxia. IV-23 and IV-2 prolonged the survival duration by 100% of the animals, showing remarkably protective action for cerebral anoxia. (Table 3)
One model was established to test the time needed for mice to die because of anoxia caused by sodium nitrite (225 mg/kg, ip). IV-23 (20 mg/kg, sc) can prolong the time for 100%, indicating significant anti-cerebral anoxic anoxia activity.

[4] = system: focal cerebral ischemia in rats; assay: Focal cerebral ischemia in rats by occlusion of middle cerebral artery (MCA); format: in vivo; settings: 20 mg/kg p.o.
Procedure: The focal ischemia rat model by occlusion of middle cerebral artery (MCA) was used to determine the protective effects of the compounds on focal cerebral ischemia. The infarct size after focal cerebral ischemia and the weight percentage of cerebral hemisphere were calculated to evaluate the compounds' effects on focal cerebral ischemia.

[5] = system: global cerebral ischemia-reperfusion injury in rats; assay: Global cerebral ischemia-reperfusion in rats, four arteries reversible occlusion; format: in vivo
Source text: The effect of IV-23 on cerebral ischemia-reperfusion in rats was studied using four arteries reversible occlusion by measuring the recovering time of the electroencephalogram and the righting reflex (a short time indicates a strong effect).

[6] = system: primary culture of rat cerebral cortical neuronal cells; assay: Protective effect on neurons damaged with NMDA, LDH activity; format: cell-based; settings: NMDA 1 mmol/L
Source text: Primary culture of rat cerebral cortical neuronal cells were used. […] This is further evidence that IV-23 is a new NMDA receptor antagonist, and has anti-cerebral ischemic injury functions as well.

mammalian cultural cell = assay: Chromosome aberration trial in mammalian cultural cell; format: cell-based
Source text: The chromosome aberration trial in mammalian cultural cell was negative.

NMDA receptor [7] = assay: Maximum contraction of isolated guinea pig longitudinal ileum muscle preparations induced by L-Glu; settings: compound 10^−5M; contraction induced by L-Glu
Source text: According to the literature (Luzzi, Br J Pharmacol, 95:1271, 1988), maximum contraction of isolated longitudinal ileomuscle preparations of guinea pig induced by L-Glu, were used to examine the activities of the compounds on the NMDA receptor.

NMDA receptor [8] = assay: Whole-cell patch clamp, current induced by NMDA in isolated rat CA1 pyramidal neuron; format: cell-based; settings: NMDA 100 μm, n=4, read-out: IC50, inhibition of the electric current induced by NMDA
Procedure: Methods: The whole-cell patch-clamp technique. Separate the rat's hippocampi, slash the brain piece into 500 μm thick. Get the CA1 area of hippocampi, put it into artificial cerebral spinal fluid (ACSF) to incubate for more than 1 hour. Then the solution is oxygen saturated. After the incubation of the brain piece, put it into ACSF with protease XIII (1 mg/ml) for 5 minutes. Using trypsin inhibitor type II-S (3 mg/ml) to terminate the protease digestion, and then using test tube to break the brain piece to obtain free cells, let it stand for a while and then start the experiment.
The electro-physiological experiment used the technique of whole-cell patch-clamp. The amplifier in the experiment is Axon-200A patch-clamp amplifier, with the DigiData-1200A as a sampling port. The software used is AxoScope Version 1.0. The experiment uses as a standard the electric current generated by the whole-cell. The effect of various samples on the electric current was observed. IC50 was determined by proportion of different concentrations to the electric current of NMDA.

[9] = system: focal cerebral ischemia in rats; assay: Focal cerebral infarction, electrical coagulation to occlude MCA; format: in vivo; parameters: The neurological deficit score After the operation / The neurological deficit score 24 h: scale not given here
Acute toxicity = settings: mouse, in vivo, mice, read-out: LD50 (95% confidence limit)
[10] = system: focal cerebral ischemia in rats; assay: Focal cerebral infarction, electrical coagulation to occlude MCA; format: in vivo; parameters: The neurological deficit score After the operation / The neurological deficit score 24 h: scale not given here; remark: listed apart in the source
Procedure: a. The Focal Cerebral-Infarction of Using Electrical Coagulation to Occlude MCA:
For the 5 mg/kg group, the percentage of the rat's infarct size was decreased, but the difference is not significant (p=0.098). The effect is not significant for the Nimodipine mg/kg.

Ames test = format: cell-based
Source text: The Ames test of IV-23 was negative.

rodent = assay: Rodent microkernel experiment; settings: in vivo
Source text: The rodent microkernel experiment of IV-23 was negative.

[11] = system: rats platelet aggregation induced by ADP; assay: Platelet aggregation induced by ADP; format: cell-based; settings: concentration 1×10^−4M

O=c1[nH]c2cc(Cl)c(Cl)c([N+](=O)[O-])c2[nH]c1=O [ACEA-1021, reference compound]
Necrotic percent (%) ([1]; rats, 2 mg/kg): 17 ± 2 % | Score of praxiology After operation ([1]; rats, 2 mg/kg): 9.5 ± 0.5 | Weight of necrotic area ([1]; rats, 2 mg/kg): 0.12 ± 0.02 g | Score of praxiology 24 h ([1]; rats, 2 mg/kg): 7.1 ± 1.9 | Percent of volume (Means ± SEM) ([2]; 10 mg/kg): 12.73 ± 1.24% | Average survival time (min)(means ± S.E.M.) (cerebral anoxia in mice; 2.5 mg/kg sc): 17.33 ± 1.18 min | Average survival time (min)(means ± S.E.M.) (cerebral anoxia in mice; 5 mg/kg sc): 18.20 ± 0.82 min | Average survival time (min)(means ± S.E.M.) (cerebral anoxia in mice; 10 mg/kg sc): 19.47 ± 1.17 min | Average survival time (min)(means ± S.E.M.) (cerebral anoxia in mice; 20 mg/kg sc): 20.04 ± 1.38 min | ED50 (cerebral anoxia in mice): 29.2 mg/kg

O=C(CN1CCN(S(=O)(=O)Cc2ccc(F)cc2F)CC1)c1ccccc1 [IV-22, N^1-phenacyl-N^4-(2,4-difluorobenzylsulfonyl) piperazine]
ILS at 20 mg/kg [3]: 26% | Infarct volume [4]: 0.10 ± 0.02 g | Neurological deficit After operation [4]: 9.6 ± 0.9 | Neurological deficit 24 h ([4]; 24 h after operation): 7.4 ± 2.4

O=C(CN1CCN(CC(=O)c2ccccc2)CC1)NCc1ccccc1 [IV-23, N^1-phenacyl-N^4-[2-(benzylamino)-2-oxo-ethyl] piperazine]
percentage of infarction lowered by ([1]; compared with vehicle (saline), 24 hours after operation): 52% | Necrotic percent (%) ([1]; rats, 2 mg/kg): 11 ± 3***^ΔΔΔ % | Score of praxiology After operation ([1]; rats, 2 mg/kg): 9.6 ± 0.5 | Weight of necrotic area (g) ([1]; rats, 2 mg/kg): 0.08 ± 0.02***^ΔΔΔ g | Score of praxiology 24 h ([1]; rats, 2 mg/kg): 5.4 ± 1.9***^Δ | Time for electroencephalogram to disappear(S) ([5]; High-dose (20 mg/kg ip)): 566.3 ± 430.3^*Δ S | Time for electroencephalogram to recover (S) ([5]; High-dose (20 mg/kg ip)): 70.3 ± 20.1^***ΔΔΔ S | Time for righting reflex to recover (S) ([5]; High-dose (20 mg/kg ip)): 147.0 ± 123.1^*ΔΔΔ S | Time for electroencephalogram to disappear(S) ([5]; Low-dose (5 mg/kg ip)): 275.5 ± 338.1^*Δ S | Time for electroencephalogram to recover (S) ([5]; Low-dose (5 mg/kg ip)): 184.6 ± 214.1^***ΔΔΔ S | Time for righting reflex to recover (S) ([5]; Low-dose (5 mg/kg ip)): 550.0 ± 282.5^*ΔΔΔ S | Time for electroencephalogram to disappear(S) ([5]; Middle-dose (10 mg/kg ip)): 557.1 ± 639.4^*Δ S | Time for electroencephalogram to recover (S) ([5]; Middle-dose (10 mg/kg ip)): 334.3 ± 674.3^***ΔΔΔ S | Time for righting reflex to recover (S) ([5]; Middle-dose (10 mg/kg ip)): 822.8 ± 741.9^*ΔΔ S | LDH activities (U/g protein) (mean ± SEM) ([6]; Concentration 10): 1.86 ± 0.20 U/g protein | Protective rate (%) ([6]; Concentration 10): 0% | LDH activities (U/g protein) (mean ± SEM) ([6]; Concentration 50): 1.23 ± 0.14 U/g protein | Protective rate (%) ([6]; Concentration 50): 48.1% | LDH activities (U/g protein) (mean ± SEM) ([6]; Concentration 100): 1.05 ± 0.16 U/g protein | Protective rate (%) ([6]; Concentration 100): 65.1% | LDH activities (U/g protein) (mean ± SEM) ([6]; Concentration 200): 0.79 ± 0.19 U/g protein | Protective rate (%) ([6]; Concentration 200): 89.6% | chromosome aberration trial (mammalian cultural cell): negative | antagonism % (restrain rate of contraction of preparations) (NMDA receptor [7]): 40% | IC50 (NMDA receptor [8]): 562.7 ± 1.1 µM | The neurological deficit score 24 h ([9]; High-dose (20 mg/kg)): 6.7 ± 2.6 | The neurological deficit score After the operation ([9]; High-dose (20 mg/kg)): 9.7 ± 0.5 | The percentage of infarction (%) ([9]; High-dose (20 mg/kg)): 14.2 ± 6.8 % | The weight of infarct area ([9]; High-dose (20 mg/kg)): 0.11 ± 0.05 g | The percentage of infarction (%) ([9]; middle-dose (10 mg/kg)): 13.4 ± 8.4 % | The weight of infarct area ([9]; middle-dose (10 mg/kg)): 0.10 ± 0.06 g | reduce the volume (of cerebral infarction) by ([2]; 5 mg/kg, after 3 hours of ischemia): 46.3% | Percent of volume (Means ± SEM) ([2]; 2.5 mg/kg): 15.42 ± 1.71% | Percent of volume (Means ± SEM) ([2]; 5 mg/kg): 12.90 ± 1.11% | Percent of infarct (%) (Means ± SEM) ([2]; 5 mg/kg, time of occlusion 1 hr): 1.31 ± 0.50% | Percent of infarct (%) (Means ± SEM) ([2]; 5 mg/kg, time of occlusion 3 hr): 8.57 ± 1.42% | Percent of infarct (%) (Means ± SEM) ([2]; 5 mg/kg, time of occlusion 6 hr): 12.90 ± 1.11% | Percent of volume (Means ± SEM) ([2]; 10 mg/kg): 14.92 ± 1.40% | LD50 (Acute toxicity; iv, i.v.): 133 mg/kg | LD50 (Acute toxicity; po, p.o.): 856 mg/kg | Average survival time (min)(means ± S.E.M.) (cerebral anoxia in mice; 10 mg/kg sc): 16.46 ± 0.89 min | Average survival time (min)(means ± S.E.M.) (cerebral anoxia in mice; 20 mg/kg sc): 17.11 ± 0.53 min | Average survival time (min)(means ± S.E.M.) (cerebral anoxia in mice; 40 mg/kg sc): 19.26 ± 0.91 min | Average survival time (min)(means ± S.E.M.) (cerebral anoxia in mice; 80 mg/kg sc): 20.04 ± 1.56 min | ED50 (cerebral anoxia in mice): 6.2 mg/kg | The neurological deficit score 24 h ([10]; Low-dose (5 mg/kg)): 8.1 ± 2.0 | The neurological deficit score After the operation ([10]; Low-dose (5 mg/kg)): 9.7 ± 0.5 | The percentage of infarction (%) ([10]; Low-dose (5 mg/kg)): 20.8 ± 8.8 % | The weight of infarct area ([10]; Low-dose (5 mg/kg)): 0.15 ± 0.06 g | The neurological deficit score 24 h ([10]; middle-dose (10 mg/kg)): 5.6 ± 2.7 | The neurological deficit score After the operation ([10]; middle-dose (10 mg/kg)): 9.6 ± 0.5 | Ames test (Ames test): negative | rodent microkernel experiment (rodent): negative | inhibition of platelet aggregation induced by ADP [11]: did inhibit | Infarct volume [4]: 0.057 ± 0.012 g | Neurological deficit After operation [4]: 9.4 ± 1.5

From patent US7326710B2, “Aralkyl formyl-alkyl piperazine derivatives and their uses as a cerebral nerve protective agent” (Shanghai Institute of Pharmaceutical Industry, priority 2002, dated 2008)
